Source: patent publication US8318731B2, “Pyrrolopyrimidines” (Janssen Pharmaceutica NV, priority 2007, dated 2012)

Key:
PLK4 (h) = biological target: T1, PLK4 (h) (Homo sapiens, UniProt O00444); experiment: PLK-4 human kinase scintillation proximity assay (SPA); assay type: biochemical; details: 1 μM ATP, 60 minutes at r.t., read-out: PLK4 pIC50 (converted)
T1 sequence (O00444 1-970): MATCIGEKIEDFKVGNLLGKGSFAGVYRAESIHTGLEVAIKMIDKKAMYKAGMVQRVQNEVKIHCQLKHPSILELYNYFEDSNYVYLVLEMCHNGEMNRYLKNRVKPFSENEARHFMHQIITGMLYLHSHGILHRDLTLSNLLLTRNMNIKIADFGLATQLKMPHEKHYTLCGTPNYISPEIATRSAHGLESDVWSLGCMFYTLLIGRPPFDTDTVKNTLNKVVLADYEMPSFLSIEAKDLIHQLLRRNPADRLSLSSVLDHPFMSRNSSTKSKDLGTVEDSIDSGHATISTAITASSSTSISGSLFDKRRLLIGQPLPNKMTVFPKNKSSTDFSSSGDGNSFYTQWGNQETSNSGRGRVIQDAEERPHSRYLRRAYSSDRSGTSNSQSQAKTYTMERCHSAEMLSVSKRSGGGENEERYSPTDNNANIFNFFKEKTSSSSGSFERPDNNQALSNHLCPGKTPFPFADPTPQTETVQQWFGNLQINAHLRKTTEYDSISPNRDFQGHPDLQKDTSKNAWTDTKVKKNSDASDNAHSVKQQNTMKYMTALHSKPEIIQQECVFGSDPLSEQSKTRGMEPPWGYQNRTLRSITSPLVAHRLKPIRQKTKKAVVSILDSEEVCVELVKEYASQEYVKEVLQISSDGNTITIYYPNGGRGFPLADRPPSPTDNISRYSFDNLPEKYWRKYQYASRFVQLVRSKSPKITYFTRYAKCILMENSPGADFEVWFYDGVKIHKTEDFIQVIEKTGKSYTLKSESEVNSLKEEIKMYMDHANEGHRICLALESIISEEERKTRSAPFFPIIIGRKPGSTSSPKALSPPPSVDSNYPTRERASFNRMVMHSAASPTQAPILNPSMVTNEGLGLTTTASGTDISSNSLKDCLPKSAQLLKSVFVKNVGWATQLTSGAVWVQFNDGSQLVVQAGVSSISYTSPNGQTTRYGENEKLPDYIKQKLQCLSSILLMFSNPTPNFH
In short: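 Human PLK4 (19 μg/ml) reacted with 10 μM biotinylated peptide, 1 μM ATP plus 2 nM [γ-33P]ATP in HEPES pH 8.0 with MgCl2, NaCl, NaF and DTT for 60 min at r.t. After an EDTA stop, phosphorylated substrate was captured on streptavidin PVT SPA beads and scintillation imaged.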

HCT-116 = experiment: Cellular proliferation assay (Alamar blue), HCT-116; assay type: cell-based; details: Homo sapiens; HCT-116 cells; 10% FCS; 72 h with compound; Alamar blue 4 h; read-out: pIC50 HCT-116 (converted)
In short: (§1)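 Cells in 10% FCS (37° C., 5% CO2) were seeded 24 hours before a 72-hour compound exposure. Viable cells were measured by Alamar blue fluorescence (544 nm/590 nm) after dye incubation of 4 h (HCT-116), 6 h (U87-MG) or 24 h (PC3, A2780). Effect is relative to control cells.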

H1299 = experiment: Cellular proliferation assay (Alamar blue), H1299; assay type: cell-based; details: Homo sapiens, NCI-H1299, H1299 cells; 10% FCS; 72 h with compound; Alamar blue 4 h; read-out: pIC50 H1299 (converted)
In short: (§2)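 Viable cell number is determined by Alamar blue conversion after cells are treated with compound for 72 hours, following 24 hours of growth without compound in 10% FCS. The effect is calculated against control cells.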

U87-MG = experiment: Cellular proliferation assay (Alamar blue), U87-MG; assay type: cell-based; details: Homo sapiens, U-87 MG; U87-MG cells; 10% FCS; 72 h with compound; Alamar blue 6 h; read-out: pIC50 U87MG (converted)
In short: as §1

A2780 = experiment: Cellular proliferation assay (Alamar blue), A2780; assay type: cell-based; details: Homo sapiens, A2780, A2780 cells; 10% FCS; 72 h with compound; Alamar blue 24 h; read-out: pIC50 A2780 (converted)
In short: as §1

PC3 = experiment: Cellular proliferation assay (Alamar blue), PC3; assay type: cell-based; details: Homo sapiens, PC-3, PC-3 cells; 10% FCS; 72 h with compound; Alamar blue 24 h; read-out: pIC50 PC-3 (converted)
In short: as §1

MDA-MB-231 = experiment: Cellular proliferation assay (Alamar blue), MDA-MB-231; assay type: cell-based; details: Homo sapiens, MDA-MB-231, MDA-MB-231 cells; 10% FCS; 72 h with compound; Alamar blue 24 h; read-out: pIC50 MDA/MB231 (converted)
In short: as §2

| SMILES | IC50 (PLK4 (h)) | IC50 (HCT-116) | IC50 (H1299) | IC50 (U87-MG) | IC50 (A2780) | IC50 (PC3) | IC50 (MDA-MB-231) |
| --- | --- | --- | --- | --- | --- | --- | --- |
| COc1cc(NC(=O)COc2ccc3cc2OCC(=O)N(C)CCCN(C)Cc2c[nH]c4ncnc(c24)N3)cc(OC)c1OC [Compound 71] | 0.0794 µM | 2 µM | 3.98 µM | 2.51 µM | 1 µM | 6.31 µM | 5.01 µM |
| COc1ccc2cc1CN(C)CC(=O)N(C)CCCc1c[nH]c3ncnc(c13)N2 [Compound 34] | > 10 µM | > 10 µM | > 10 µM | > 10 µM | > 10 µM | > 10 µM | > 10 µM |
| O=C1CCCCOc2cccc(c2)Nc2ncnc3[nH]cc(c23)CN2CCN1CC2 [Compound 86] | > 10 µM | > 10 µM | > 10 µM | > 10 µM | > 10 µM | > 10 µM | > 10 µM |
| COCCN(CCOc1ccc2cc1OCC(=O)N(C)CCCN(C)Cc1c[nH]c3ncnc(c13)N2)Cc1ccccc1 [Compound 141] | 0.0398 µM | 0.398 µM | 1.26 µM | 2.51 µM | 0.2 µM | 3.16 µM | 3.98 µM |
| COc1cc(NC(=O)COc2ccc3cc2OCC(=O)N(C)CCCN(C)Cc2cn(C)c4ncnc(c24)N3)cc(OC)c1OC [Compound 145] | 5.01 µM | > 10 µM | > 10 µM | > 10 µM | > 10 µM | > 10 µM | > 10 µM |
| CN1CCCN(C)C(=O)COc2cc(ccc2NC(=O)NC2CCCC2)Nc2ncnc3[nH]cc(c23)C1 [Compound 66] | 0.0398 µM | 5.01 µM | > 10 µM | 1.58 µM | > 10 µM | 7.94 µM | > 10 µM |
| CN1CCCN(C)C(=O)COc2cc(ccc2OC(F)F)Nc2ncnc3[nH]cc(c23)C1 [Compound 76] | 0.0398 µM | 2 µM | 1.26 µM | 2.51 µM | 0.794 µM | 2 µM | > 10 µM |
| CN1CCCN(C)C(=O)COc2cc(ccc2OCCN2CCOCC2)Nc2ncnc3[nH]cc(c23)C1 [Compound 126] | 0.501 µM | 3.98 µM | 7.94 µM | 6.31 µM | 2 µM | 7.94 µM | 10 µM |
| CCN(CCOC)CCOc1ccc2cc1OCC(=O)N(C)CCCN(C)Cc1c[nH]c3ncnc(c13)N2 [Compound 77] | 0.0631 µM | 3.16 µM | 7.94 µM | 3.16 µM | 2.51 µM | 3.16 µM | 5.01 µM |
| COCCCOc1ccc2cc1OCC(=O)N(C)CCCN(C)Cc1c[nH]c3ncnc(c13)N2 [Compound 132] | 0.0794 µM | 1.58 µM | 3.98 µM | 2 µM | 1.26 µM | 3.98 µM | 3.98 µM |
| CN1CCCN(C)C(=O)COc2cc(ccc2OCCCNc2ccc(Cl)cc2)Nc2ncnc3[nH]cc(c23)C1 [Compound 142] | 0.0794 µM | 0.631 µM | 2 µM | 3.16 µM | 0.398 µM | 10 µM | > 10 µM |
| CCOc1ccc2cc1OCC(=O)N(C)CCCN(C)Cc1c[nH]c3ncnc(c13)N2 [Compound 63] | 0.0794 µM | 0.631 µM | 2 µM | 2 µM | 0.501 µM | 2.51 µM | 3.16 µM |
| CN1CCCN(C)C(=O)COc2cc(ccc2OCC(=O)NC2CC2)Nc2ncnc3[nH]cc(c23)C1 [Compound 125] | 0.0251 µM | 5.01 µM | 6.31 µM | > 10 µM | 1.26 µM | > 10 µM | > 10 µM |
